Measured values published in ChEMBL document CHEMBL4825671, “Design, synthesis and biological evaluation of novel FXIa inhibitors with 2-phenyl-1H-imidazole-5-carboxamide moiety as P1 fragment” (Eur J Med Chem, 2021).

What was measured:
Coagulation factor XI [1] = biological target: T1, Coagulation factor XI (Homo sapiens, UniProt P03951); experiment: Binding affinity to coagulation factor 11a (unknown origin) assessed as inhibition constant using (p-Glu-Pro-Arg-pNa,HCl) as substrate preincubated for 5 mins followed by substrate addition and measured after 10 mins
T1 sequence (P03951 19-387 limits assumed): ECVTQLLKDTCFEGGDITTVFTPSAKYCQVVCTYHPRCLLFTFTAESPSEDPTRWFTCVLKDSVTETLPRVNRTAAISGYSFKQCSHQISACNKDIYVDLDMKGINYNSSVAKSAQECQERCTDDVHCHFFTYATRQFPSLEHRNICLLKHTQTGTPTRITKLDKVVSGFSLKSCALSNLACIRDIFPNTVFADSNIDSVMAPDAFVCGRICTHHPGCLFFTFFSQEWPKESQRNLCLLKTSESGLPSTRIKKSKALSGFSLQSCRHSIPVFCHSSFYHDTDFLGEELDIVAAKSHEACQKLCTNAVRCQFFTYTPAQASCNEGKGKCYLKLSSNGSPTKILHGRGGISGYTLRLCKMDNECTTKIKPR
T1 sequence (P03951 388-625 limits assumed): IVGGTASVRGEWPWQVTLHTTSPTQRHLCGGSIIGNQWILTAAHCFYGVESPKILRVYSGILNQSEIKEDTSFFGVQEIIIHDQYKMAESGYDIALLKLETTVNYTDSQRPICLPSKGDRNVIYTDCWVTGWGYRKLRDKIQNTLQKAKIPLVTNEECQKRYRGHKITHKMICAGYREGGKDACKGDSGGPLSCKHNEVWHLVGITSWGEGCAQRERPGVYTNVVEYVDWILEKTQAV

Coagulation factor XI [2] = biological target: T1, Coagulation factor XI; experiment: Inhibition of coagulation factor 11a (unknown origin) at 500 uM using (p-Glu-Pro-Arg-pNa,HCl) as substrate preincubated for 5 mins followed by substrate addition and measured after 10 mins relative to control; settings: time 15.0 min
Coagulation factor XI [3] = biological target: T1, Coagulation factor XI; experiment: Inhibition of coagulation factor 11a (unknown origin) at 100 uM using (p-Glu-Pro-Arg-pNa,HCl) as substrate preincubated for 5 mins followed by substrate addition and measured after 10 mins relative to control; settings: time 15.0 min

## COc1ccc(-c2nc(C)c(C(=O)O)n2O)cc1C#N
Coagulation factor XI [1]
  Ki: 243 µM

## Cc1nc(-c2cccc(Cl)c2F)n(O)c1C(=O)N[C@@H](Cc1ccc(NC(=O)c2ccccc2)cc1)C(=O)Nc1ccc2[nH]c(C(=O)O)cc2c1
Coagulation factor XI [1]
  Ki: 0.366 µM

## Cc1nc(-c2cccc(Cl)c2F)n(O)c1C(=O)N[C@@H](Cc1ccccc1)C(=O)Nc1ccc(C(=O)O)cc1
Coagulation factor XI [1]
  Ki: 11.8 µM

## Cc1nc(-c2ccccc2)n(O)c1C(=O)N[C@@H](Cc1ccccc1)C(=O)Nc1ccc(C(=O)O)cc1
Coagulation factor XI [1]
  Ki: > 100 µM

## Cc1nc(-c2ccc(OCC(C)C)c(C#N)c2)n(O)c1C(=O)O
Coagulation factor XI [1]
  Ki: > 500 µM
Coagulation factor XI [2]
  inhibition: 29.8%

## Cc1nc(-c2cccc(C#N)c2)n(O)c1C(=O)N[C@@H](Cc1ccccc1)C(=O)Nc1ccc(C(=O)O)cc1
Coagulation factor XI [1]
  Ki: 23.9 µM

## Cc1nc(-c2cccc(Cl)c2F)n(O)c1C(=O)N[C@@H](Cc1ccc(NC(=O)C2CCC2)cc1)C(=O)Nc1ccc2[nH]c(C(=O)O)cc2c1
Coagulation factor XI [1]
  Ki: 0.0225 µM

## Cc1nc(-c2cccc(Cl)c2)n(O)c1C(=O)N[C@@H](Cc1ccccc1)C(=O)Nc1ccc(C(=O)O)cc1
Coagulation factor XI [1]
  Ki: 14.5 µM

## Cc1nc(-c2ccc(Cl)cc2)n(O)c1C(=O)N[C@@H](Cc1ccccc1)C(=O)Nc1ccc(C(=O)O)cc1
Coagulation factor XI [1]
  Ki: > 100 µM
Coagulation factor XI [3]
  inhibition: 22.5%

## Cc1nc(-c2cccc(Cl)c2F)n(O)c1C(=O)N[C@@H](Cc1ccc(NC(=O)C2CC2)cc1)C(=O)Nc1ccc2[nH]c(C(=O)O)cc2c1
Coagulation factor XI [1]
  Ki: 0.259 µM

## Cc1nc(-c2cccc(Cl)c2F)n(O)c1C(=O)N[C@@H](Cc1ccc(NC(=O)c2ccccn2)cc1)C(=O)Nc1ccc2[nH]c(C(=O)O)cc2c1
Coagulation factor XI [1]
  Ki: 0.155 µM

## Cc1nc(-c2cccc(Cl)c2F)n(O)c1C(=O)N[C@@H](Cc1ccc(NC(=O)C2CCCC2)cc1)C(=O)Nc1ccc2[nH]c(C(=O)O)cc2c1
Coagulation factor XI [1]
  Ki: 0.0339 µM

## Cc1nc(-c2cccc(Cl)c2F)n(O)c1C(=O)N[C@@H](Cc1ccc(NC(=O)CC(C)C)cc1)C(=O)Nc1ccc2[nH]c(C(=O)O)cc2c1
Coagulation factor XI [1]
  Ki: 0.026 µM

## Cc1nc(-c2cccc(Cl)c2F)n(O)c1C(=O)N[C@@H](Cc1ccc(Cl)cc1)C(=O)Nc1ccc2[nH]c(C(=O)O)cc2c1
Coagulation factor XI [1]
  Ki: 0.356 µM

## CC(=O)Nc1ccc(C[C@H](NC(=O)c2c(C)nc(-c3cccc(Cl)c3F)n2O)C(=O)Nc2ccc3[nH]c(C(=O)O)cc3c2)cc1
Coagulation factor XI [1]
  Ki: 0.392 µM

## Cc1nc(-c2cccc(C#N)c2)n(O)c1C(=O)O
Coagulation factor XI [1]
  Ki: 120 µM

## Cc1nc(-c2cccc(Cl)c2F)n(C)c1C(=O)N[C@@H](Cc1ccccc1)C(=O)Nc1ccc(C(=O)O)cc1
Coagulation factor XI [1]
  Ki: 22.4 µM

## Cc1nc(-c2cccc(Cl)c2F)n(O)c1C(=O)N[C@@H](Cc1ccc(N)cc1)C(=O)Nc1ccc2[nH]c(C(=O)O)cc2c1
Coagulation factor XI [1]
  Ki: 3.08 µM
